# According to article PMC11218446, “Antibacterial efficacy and membrane mechanism of action of the Serratia-derived non-ionic lipopeptide, serrawettin W2-FL10” (Microbiology Spectrum, 2024):
# Assays:
# [1] = system: tested Gram-negative bacterial strains; assay: Broth microdilution assay (OD 600 nm); format: cell-based; conditions: results not shown
# Excerpt: The S. marcescens NP2 strain was previously isolated from a wastewater treatment plant sample and the identity of the strain was confirmed via molecular typing ([47]). The S. marcescens NP2 strain was deposited in the South African Rhizobium Culture Collection (SARCC no. 3157). The test bacterial strains used in the broth microdilution assay included L. monocytogenes ATCC 13932, E. faecalis ATCC 7080, S. aureus ATCC 25923, S. aureus RN4220, MRSA Xen 30, E. faecalis S1, E. faecium S1, B. subtilis ATCC 6051, E. coli ATCC 417371, P. aeruginosa ATCC 27853, K. pneumoniae ATCC 13383, A. baumannii ATCC 19606, and S. typhimurium ATCC 14028. […]
# All the cultures (inoculated into 5 mL MHB, or 5 mL TSB for Listeria and Enterococcus strains) were incubated at 37°C to reach an optical density (OD) of 0.4 at 600 nm (∼10^7 CFU/mL). […] Following incubation, the absorbance was measured using a microtiter plate reader at 600 nm. […]
# The “top” and “bottom” are the maximum and minimum inhibition responses, respectively, for a particular set of dose-response data, while the activity slope is related to the Hill slope of a sigmoidal binding curve ([16]). […] In addition to the MIC and IC50 inhibition parameters, an inhibition concentration factor (ICF), was calculated as outlined in Rautenbach et al. ([17]). […]
# three S. aureus strains = assay: Membrane depolarization assay, DiSC3(5), summary; format: cell-based, Staphylococcus aureus; conditions: abstract
# Description: The membrane depolarization capability (ability to disrupt membrane potential) of the W2-FL10 against S. aureus ATCC 25923, S. aureus RN4220, or MRSA Xen 30 was determined using the voltage-sensitive fluorescent probe, DiSC3(5) ([20]). Briefly, black 96-well plates were prepared with W2-FL10 at 12.5 µg/mL and 25 µg/mL, while 4 and 8 µg/mL of melittin were used as a positive depolarization control, and the plates were air dried as described in the “Antibacterial activity: broth microdilution assay” section. The S. aureus strains were inoculated into MHB and grown to the mid-log phase (OD600 of 0.5–0.6). Cells were harvested by centrifugation at 3,000 rpm for 10 min and resuspended in HEPES buffer (5 mM, pH 7.4, containing 20 mM glucose; 100 mM KCl) to OD600 of 0.05. Thereafter, DiSC3(5) (stock concentration of 400 µM in 100% DMSO) was added to the cell suspension to a final concentration of 0.4 µM, and cells were incubated in the dark at room temperature for 40 min. Cell suspensions (100 µL) were then dispensed into the wells of the black 96-well plate. […] Fluorometric readings of the plate were conducted at 1 min intervals over 12 min (readings began 60 s after cells were added to the plates) using a Tecan Spark at 622 nm excitation wavelength and 670 nm emission wavelength. […]
# [2] = Oligomer detection by ESI-HRMS; format: physicochemical; conditions: MaxEnt 3 mass spectrum (Fig. 1C)
compound,measurement,setting,value
"CCCCCCCC1CC(=O)N[C@H](CC(C)C)C(=O)N[C@@H](CO)C(=O)N[C@@H]([C@@H](C)O)C(=O)N[C@H](Cc2ccccc2)C(=O)N[C@@H](CC(C)C)C(=O)O1 (stereo partly drawn) [W2-FL10, serrawettin W2-FL10]",MIC,[1],> 125 µg/mL
same,time within which membrane potential was dissipated,three S. aureus strains,≤ 12 min
same,oligomers detected,[2],"dimers, trimers, tetramers, and pentamers"
